Like-named read-outs stand apart in the source and are kept apart here.
Assays:
human CA-IX = target: T1, human CA-IX (Homo sapiens, UniProt Q16790); assay: Surface Plasmon Resonance (SPR) binding kinetics to recombinant human CA-IX (Biacore 8K, single-cycle kinetics, 1:1 binding model)
T1 construct: purchased Acro CA9-H82E3
Description: (§1) G1. Surface Plasmon Resonance Assay Conditions for hCA-IX and hCA-XII
(§2) Surface Plasmon Resonance (SPR) experiments were conducted on a Biacore 8K instrument (Cytiva, Marlborough, MA) to determine the binding kinetics of the compound to recombinant human CA-IX (Acro, CA9-H82E3) and CA-XII (Creative BioMart, CA12-261H) proteins. The ligands were diluted to 10 μg/mL in PBS-P+ buffer (20 mM phosphate buffer, pH 7.4, with 2.7 mM KCl, 137 mM NaCl, and 0.05% Tween 20) and captured on Series S Streptavidin Sensor Chips (Cytiva, 29699621) to 1200-1800 response units (RU) using a flow rate of 5 μL/min and injection times of 180 seconds for human CA-IX and 75 seconds for human CA-XII. Analyte binding was evaluated using a single-cycle kinetics method over 9 analyte concentrations (100-0.39 nM) in PBS-P+ buffer with 1% DMSO using a 50 μL/min. flow rate, 120 second association time, and 1200 second dissociation time. The flow cell temperature was set to 25° C. Analyte binding curves were fit to a 1:1 binding kinetic model in Biacore Insight Evaluation software (version 4.0.8.20368) following reference flow cell subtraction and DMSO correction to derive the association and dissociation binding constants.

human CA-XII = target: T2, human CA-XII (Homo sapiens, UniProt O43570); assay: Surface Plasmon Resonance (SPR) binding kinetics to recombinant human CA-XII (Biacore 8K, single-cycle kinetics, 1:1 binding model)
T2 construct: purchased Creative BioMart CA12-261H
T2 sequence (O43570 25-354): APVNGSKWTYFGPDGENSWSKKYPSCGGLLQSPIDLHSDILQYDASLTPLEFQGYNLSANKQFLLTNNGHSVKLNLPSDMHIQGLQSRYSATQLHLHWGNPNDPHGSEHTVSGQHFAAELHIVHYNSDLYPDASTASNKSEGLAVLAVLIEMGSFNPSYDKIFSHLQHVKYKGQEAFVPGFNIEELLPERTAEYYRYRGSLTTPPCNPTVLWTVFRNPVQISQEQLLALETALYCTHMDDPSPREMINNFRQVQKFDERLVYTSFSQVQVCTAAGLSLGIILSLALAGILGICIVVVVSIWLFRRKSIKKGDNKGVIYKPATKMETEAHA
Description: as §1, §2

[1] = Chelated Metal: Lu-175; SPR, 25° C., pH 7.4; read-out: CAIX KD
[2] = Chelated Metal: Lu-175, 25° C., pH 7.4, read-out: CAXII KD
[3] = read-out: CAIX KD; Chelated Metal: Lu-175; SPR, 25° C., pH 7.4
[4] = read-out: CAXII KD, Chelated Metal: Lu-175, 25° C., pH 7.4

Compound	Kd (human CA-IX; [1])	Kd (human CA-XII; [2])	also measured
CC(CCCC(=O)N1CCC(C(N)=O)(C(=O)NCC(=O)N[C@@H](CCCCn2cc(CCCC(=O)Nc3nnc(S(N)(=O)=O)s3)nn2)C(=O)NCCOCCOCCNC(=O)CN2CCN(CC(=O)O)CCN(CC(=O)O)CCN(CC(=O)O)CC2)CC1)(c1ccc(O)cc1)c1ccc(O)cc1 [Compound 102.3]	–	–	Kd (human CA-IX; Chelated Metal: None; SPR, 25° C., pH 7.4; read-out: CAIX KD): < 1 nM; Ratio (CAXII/CAIX) (human CA-IX; KD ratio CAXII/CAIX; Chelated Metal: None): *** (10 < *** ≤ 50); Kd (human CA-XII; Chelated Metal: None, 25° C., pH 7.4, read-out: CAXII KD): > 10 nM
CC(CCCC(=O)N1CCCC[C@H]1C(=O)N[C@@H](CC(=O)N1CCN(C(=O)CN2CCN(CC(=O)O)CCN(CC(=O)O)CCN(CC(=O)O)CC2)C[C@@H]1C(=O)NCCn1cc(C23CC(C(=O)Nc4nnc(S(N)(=O)=O)s4)(C2)C3)nn1)C(=O)O)(c1ccc(O)cc1)c1ccc(O)cc1.[Lu+3] [Compound 109.40]	< 1 nM	> 10 nM	–
NS(=O)(=O)c1nnc(NC(=O)C23CCC(c4cn(CCNC(=O)[C@@H]5CN(C(=O)CN6CCN(CC(=O)O)CCN(CC(=O)O)CCN(CC(=O)O)CC6)CCN5C(=O)CC[C@H](NC(=O)C[C@H](NC(=O)CCCc5ccc(O)cc5)C(=O)O)C(=O)O)nn4)(CC2)CC3)s1.[Lu+3] [Compound 109.42]	< 1 nM	< 1 nM	–
NS(=O)(=O)c1nnc(NC(=O)C23CC(c4cn(CCNC(=O)[C@H]5CNCCN5C(=O)[C@H](CCCCNC(=O)CN5CCN(CC(=O)O)CCN(CC(=O)O)CCN(CC(=O)O)CC5)NC(=O)CC[C@H](NC(=O)c5n[nH]c6ccccc56)C(=O)O)nn4)(C2)C3)s1.[Lu+3] [Compound 118.3]	2.5 to 10 nM	2.5 to 10 nM	–
NS(=O)(=O)c1nnc(NC(=O)CCCc2nnn(CCCC[C@H](NC(=O)C[C@H](Nc3cc(NC(=O)c4n[nH]c5ccc(O)cc45)cc(C(=O)O)c3)C(=O)O)C(=O)NCCOCCOCCNC(=O)CN3CCN(CC(=O)O)CCN(CC(=O)O)CCN(CC(=O)O)CC3)c2C(=O)O)s1.[Lu+3] [Compound 102.8]	< 1 nM	1 to 2.5 nM	–
NS(=O)(=O)c1nnc(NC(=O)C23CC(c4cn(C[C@H]5CN(C(=O)CN6CCN(CC(=O)O)CCN(CC(=O)O)CCN(CC(=O)O)CC6)CCN5c5nccc(NCCc6n[nH]c7ccccc67)n5)nn4)(C2)C3)s1.[Lu+3] [Compound 115]	–	–	Kd (human CA-IX; [3]): 2.5 to 10 nM; Kd (human CA-XII; [4]): > 10 nM
CC(CCCC(=O)N1CCOC[C@H]1C(=O)N[C@@H](CC(=O)N1CCN(C(=O)CN2CCN(CC(=O)O)CCN(CC(=O)O)CCN(CC(=O)O)CC2)C[C@H]1C(=O)NCCn1cc(C23CC(C(=O)Nc4nnc(S(N)(=O)=O)s4)(C2)C3)nn1)C(=O)O)(c1ccc(O)cc1)c1ccc(O)cc1.[Lu+3] [Compound 107.29]	< 1 nM	> 10 nM	–
CC(CCC(=O)N[C@@H](CC(=O)N[C@@H](CCC(=O)N1CCN(C(=O)CN2CCN(CC(=O)O)CCN(CC(=O)O)CCN(CC(=O)O)CC2)C[C@@H]1Cn1cc(C23CC(C(=O)Nc4nnc(S(N)(=O)=O)s4)(C2)C3)nn1)C(=O)O)C(=O)O)(c1ccc(O)cc1)c1ccc(O)cc1.[Lu+3] [Compound 107.14]	< 1 nM	< 1 nM	–
NS(=O)(=O)c1nnc(NC(=O)C23CC(c4cn(CCNC(=O)[C@@H]5CN(C(=O)CN6CCN(CC(=O)O)CCN(CC(=O)O)CCN(CC(=O)O)CC6)CCN5C(=O)C[C@H](NC(=O)C[C@H](NC(=O)c5cccc(C6CC6)c5)C(=O)O)C(=O)O)nn4)(C2)C3)s1.[Lu+3] [Compound 109]	–	–	Kd (human CA-IX; [3]): < 1 nM; Kd (human CA-XII; [4]): 2.5 to 10 nM
NS(=O)(=O)c1nnc(NC(=O)C23CC(c4cn(CCNC(=O)[C@@H]5CN(C(=O)CN6CCN(CC(=O)O)CCN(CC(=O)O)CCN(CC(=O)O)CC6)CCN5C(=O)C[C@H](NC(=O)C[C@H](NC(=O)c5coc(C6CC6)n5)C(=O)O)C(=O)O)nn4)(C2)C3)s1.[Lu+3] [Compound 109.8]	1 to 2.5 nM	2.5 to 10 nM	–
NS(=O)(=O)c1nnc(NC(=O)C23CCC(c4cn(CCNC(=O)[C@@H]5CN(C(=O)CN6CCN(CC(=O)O)CCN(CC(=O)O)CCN(CC(=O)O)CC6)CCN5C(=O)CNC(=O)C5(C(=O)O)CCN(C(=O)CCCc6ccc(O)cc6)CC5)nn4)(CC2)CC3)s1.[Lu+3] [Compound 107.7]	< 1 nM	1 to 2.5 nM	–
CC(CCCC(=O)N1CCC(C(N)=O)(C(=O)NCC(=O)N2CCN(C(=O)CN3CCN(CC(=O)O)CCN(CC(=O)O)CCN(CC(=O)O)CC3)C[C@@H]2C(=O)NCCn2nnc(C34CC(C(=O)Nc5nnc(S(N)(=O)=O)s5)(C3)C4)c2C(=O)O)CC1)(c1ccc(O)cc1)c1ccc(O)cc1.[Lu+3] [Compound 107.59]	< 1 nM	> 10 nM	–
CC(CCCC(=O)N1CCC(C(N)=O)(C(=O)NCC(=O)N2CCN(C(=O)CCOCCOCCOCCOCCN(CCOCCOCCOCCOCCC(=O)N3CCN(C(=O)CNC(=O)C4(C(N)=O)CCN(C(=O)CCCC(C)(c5ccc(O)cc5)c5ccc(O)cc5)CC4)[C@H](C(=O)NCCn4cc(C56CC(C(=O)Nc7nnc(S(N)(=O)=O)s7)(C5)C6)nn4)C3)C(=O)CNC(=O)CN3CCN(CC(=O)O)CCN(CC(=O)O)CCN(CC(=O)O)CC3)C[C@H]2C(=O)NCCn2cc(C34CC(C(=O)Nc5nnc(S(N)(=O)=O)s5)(C3)C4)nn2)CC1)(c1ccc(O)cc1)c1ccc(O)cc1.[Lu+3] [Compound 131]	–	–	Kd (human CA-IX; [3]): < 1 nM; Kd (human CA-XII; [4]): 2.5 to 10 nM
CC(CCC(=O)N[C@@H](CC(=O)N[C@@H](CC(=O)N[C@@H](CCCCn1cc([C@H]2CC[C@H](C(=O)Nc3nnc(S(N)(=O)=O)s3)CC2)nn1)C(=O)NCCOCCOCCNC(=O)CN1CCN(CC(=O)O)CCN(CC(=O)O)CCN(CC(=O)O)CC1)C(=O)O)C(=O)O)(c1ccc(O)cc1)c1ccc(O)cc1.[Lu+3] [Compound 100.4]	< 1 nM	2.5 to 10 nM	–
CC(CCC(=O)N1CCNC[C@H]1C(=O)N[C@@H](CC(=O)N1CCN(C(=O)CN2CCN(CC(=O)O)CCN(CC(=O)O)CCN(CC(=O)O)CC2)C[C@@H]1C(=O)NCCn1cc(C23CC(C(=O)Nc4nnc(S(N)(=O)=O)s4)(C2)C3)nn1)C(N)=O)(c1ccc(O)cc1)c1ccc(O)cc1.[Lu+3] [Compound 108.3]	2.5 to 10 nM	> 10 nM	–
NS(=O)(=O)c1c(F)c(F)c(S(=O)(=O)CCOCc2cn(CCCNC(=O)[C@@H]3CN(C(=O)CN4CCN(CC(=O)O)CCN(CC(=O)O)CCN(CC(=O)O)CC4)CCN3C(=O)CNC(=O)C3(C(=O)O)CCN(C(=O)CCCCc4ccc(O)cc4)CC3)nn2)c(NC2CCCCCCC2)c1F.[Lu+3] [Compound 107.45]	< 1 nM	2.5 to 10 nM	–
CC(CCC(=O)N[C@H](CC(=O)N[C@H](CC(=O)N1CCN(C(=O)CN2CCN(CC(=O)O)CCN(CC(=O)O)CCN(CC(=O)O)CC2)C[C@H]1C(=O)NCCn1cc(C23CC(C(=O)Nc4nnc(S(N)(=O)=O)s4)(C2)C3)nn1)C(=O)O)C(=O)O)(c1ccc(O)cc1)c1ccc(O)cc1.[Lu+3] [Compound 107.21]	1 to 2.5 nM	> 10 nM	–
CC(CCC(=O)N[C@@H](CC(=O)N[C@@H](CC(=O)N1CCN(C(=O)CN2CCN(CC(=O)O)CCN(CC(=O)O)CCN(CC(=O)O)CC2)C[C@H]1C(=O)NCCn1cc(C23CCC(C(=O)Nc4nnc(S(N)(=O)=O)s4)(CC2)C3)nn1)C(=O)O)C(=O)O)(c1ccc(O)cc1)c1ccc(O)cc1.[Lu+3] [Compound 107.2]	< 1 nM	< 1 nM	–
NS(=O)(=O)c1nnc(NC(=O)C23CCC(c4cn(CCNC(=O)[C@@H]5CN(C(=O)CN6CCN(CC(=O)O)CCN(CC(=O)O)CCN(CC(=O)O)CC6)CCN5C(=O)CC[C@H](NC(=O)C[C@H](NC(=O)CCC5CCCCC5)C(=O)O)C(=O)O)nn4)(CC2)CC3)s1.[Lu+3] [Compound 109.44]	< 1 nM	< 1 nM	–
CC(CC(=O)N[C@@H](CC(=O)N[C@@H](CC(=O)N[C@@H](CCCCn1cc(C23CCC(C(=O)Nc4nnc(S(N)(=O)=O)s4)(CC2)C3)nn1)C(=O)NCCOCCOCCNC(=O)CN1CCN(CC(=O)O)CCN(CC(=O)O)CCN(CC(=O)O)CC1)C(=O)O)C(=O)O)(c1ccc(O)cc1)c1ccc(O)cc1.[Lu+3] [Compound 100.17]	< 1 nM	< 1 nM	–
NS(=O)(=O)c1nnc(CC(=O)C23CC(c4cn(CCNC(=O)[C@H]5COCCN5C(=O)CC[C@H](NC(=O)[C@H](CCCCNC(=O)CN5CCN(CC(=O)O)CCN(CC(=O)O)CCN(CC(=O)O)CC5)NC(=O)CCC5CCCCC5)C(=O)O)nn4)(C2)C3)s1.[Lu+3] [Compound 118.1]	1 to 2.5 nM	> 10 nM	–
CC(CCC(=O)N[C@@H](CC(=O)N[C@@H](CC(=O)N1CCN(C(=O)CN2CCN(CC(=O)O)CCN(CC(=O)O)CCN(CC(=O)O)CC2)C[C@H]1C(=O)NCCn1cc(C23CC(C(=O)Nc4nnc(S(N)(=O)=O)s4)(C2)C3)nn1)C(=O)O)C(=O)O)(c1ccc(O)cc1)c1ccc(O)cc1.[Lu+3] [Compound 106]	–	–	Kd (human CA-IX; [3]): < 1 nM; Kd (human CA-XII; [4]): 2.5 to 10 nM
Cc1cc(-c2cn(CCNC(=O)[C@@H]3CN(C(=O)CN4CCN(CC(=O)O)CCN(CC(=O)O)CCN(CC(=O)O)CC4)CCN3C(=O)C[C@H](NC(=O)C[C@H](NC(=O)CCC(C)(c3ccc(O)cc3)c3ccc(O)cc3)C(=O)O)C(=O)O)nn2)ccc1C(=O)Nc1nnc(S(N)(=O)=O)s1.[Lu+3] [Compound 107.40]	–	< 1 nM	–
